Laboratory results reported in patent US9662327B2 (AGIOS PHARMACEUTICALS, INC, priority 2011, dated 2017).

Molecular target: IDH1 R132H (Homo sapiens (Human), UniProt O75874, R132H)
Assay: Assays for IDH1 R132H Inhibitors (NADPH/aKG, resazurin detection)
Type: biochemical
Conditions: IDH1 R132H enzyme, Table 2; read-out: IDHR132H Activity
Procedure, shortened: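 Mutant enzyme in 150 mM NaCl, 10 mM MgCl2, 20 mM Tris pH 7.5, 0.03% BSA; compound in DMSO added to substrate mix of 8 uM NADPH and 2 mM aKG. Reaction ran 50 min at room temperature, then resazurin detection mix (30 μM) added for 5 min at room temperature.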

Sequence of IDH1 R132H (O75874 whole entry R132H): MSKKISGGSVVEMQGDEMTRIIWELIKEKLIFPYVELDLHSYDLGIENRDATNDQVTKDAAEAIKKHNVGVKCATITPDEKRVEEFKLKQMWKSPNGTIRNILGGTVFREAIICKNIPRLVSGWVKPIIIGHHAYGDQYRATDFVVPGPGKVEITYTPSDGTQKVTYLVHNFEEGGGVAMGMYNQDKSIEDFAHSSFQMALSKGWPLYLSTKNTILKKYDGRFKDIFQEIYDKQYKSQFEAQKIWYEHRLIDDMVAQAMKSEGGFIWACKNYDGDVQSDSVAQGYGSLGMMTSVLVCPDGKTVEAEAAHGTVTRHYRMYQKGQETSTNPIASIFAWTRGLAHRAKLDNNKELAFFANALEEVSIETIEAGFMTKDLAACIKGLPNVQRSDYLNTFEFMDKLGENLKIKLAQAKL

Row | SMILES | IC50 [nM]
1 | CC(C)[C@@H]1CN(c2nc(C3CC3)c3c(c2C#N)CC(C)(C)OC3)CCN1C(=O)c1cnn2cccnc12 [Compound 232, (R)-8-cyclopropyl-6-(3-isopropyl-4-(pyrazolo[1,5-a]pyrimidine-3-carbonyl)piperazin-1-yl)-3,3-dimethyl-3,4-dihydro-1H-pyrano[3,4-c]pyridine-5-carbonitrile] | 1000 to 10000
2 | COc1cccc(CC(=O)N2CCN(c3nc(C(C)C)c4c(c3C#N)CC(C)(C)OC4)C[C@H]2C(C)C)c1 [Compound 233, (R)-8-isopropyl-6-(3-isopropyl-4-(2-(3-methoxyphenyl)acetyl)piperazin-1-yl)-3,3-dimethyl-3,4-dihydro-1H-pyrano[3,4-c]pyridine-5-carbonitrile] | 1000 to 10000
3 | CC(C)c1nc(N2CCN(C(=O)Cc3cccc(F)c3)[C@H](C(C)C)C2)c(C#N)c2c1COC(C)(C)C2 [Compound 234, (R)-6-(4-(2-(3-fluorophenyl)acetyl)-3-isopropylpiperazin-1-yl)-8-isopropyl-3,3-dimethyl-3,4-dihydro-1H-pyrano[3,4-c]pyridine-5-carbonitrile] | 1000 to 10000
4 | CC[C@@H]1CN(c2nc(C3CC3)c3c(c2C#N)CC(C)(C)OC3)CCN1C(=O)c1ccoc1 [Compound 235] | < 500
5 | CC[C@@H]1CN(c2nc(C3CC3)c3c(c2C#N)CC(C)(C)OC3)CCN1C(=O)Cc1cccs1 [Compound 236] | < 500
6 | CC[C@@H]1CN(c2nc(C3CC3)c3c(c2C#N)CC(C)(C)OC3)CCN1C(=O)c1ccoc1C [Compound 237, (R)-8-cyclopropyl-6-(3-ethyl-4-(2-methylfuran-3-carbonyl)piperazin-1-yl)-3,3-dimethyl-3,4-dihydro-1H-pyrano[3,4-c]pyridine-5-carbonitrile] | < 500
7 | C[C@@H]1CN(c2nc(C3CCCCC3)c3c(c2C#N)CCOC3)CCN1C(=O)Cc1ccccn1 [Compound 238, (R)-8-cyclohexyl-6-(3-methyl-4-(2-(pyridin-2-yl)acetyl)piperazin-1-yl)-3,4-dihydro-1H-pyrano[3,4-c]pyridine-5-carbonitrile] | 1000 to 10000
8 | C[C@@H]1CN(c2nc(C3CCCCC3)c3c(c2C#N)CCOC3)CCN1C(=O)c1cscn1 [Compound 239, (R)-8-cyclohexyl-6-(3-methyl-4-(thiazole-4-carbonyl)piperazin-1-yl)-3,4-dihydro-1H-pyrano[3,4-c]pyridine-5-carbonitrile] | 1000 to 10000
9 | COCCC(=O)N1CCN(c2nc(C3CCCCC3)c3c(c2C#N)CCOC3)C[C@H]1C [Compound 240, (R)-8-cyclohexyl-6-(4-(3-methoxypropanoyl)-3-methylpiperazin-1-yl)-3,4-dihydro-1H-pyrano[3,4-c]pyridine-5-carbonitrile] | 1000 to 10000
10 | C[C@@H]1CN(c2nc(C3CCCCC3)c3c(c2C#N)CCOC3)CCN1C(=O)c1cccs1 [Compound 241, (R)-8-cyclohexyl-6-(3-methyl-4-(thiophene-2-carbonyl)piperazin-1-yl)-3,4-dihydro-1H-pyrano[3,4-c]pyridine-5-carbonitrile] | 1000 to 10000
11 | C[C@@H]1CN(c2nc(C3CCCCC3)c3c(c2C#N)CCOC3)CCN1C(=O)c1ccsc1 [Compound 242, (R)-8-cyclohexyl-6-(3-methyl-4-(thiophene-3-carbonyl)piperazin-1-yl)-3,4-dihydro-1H-pyrano[3,4-c]pyridine-5-carbonitrile] | 1000 to 10000
12 | C[C@@H]1CN(c2nc(C3CCCCC3)c3c(c2C#N)CCOC3)CCN1C(=O)c1csc2ccccc12 [Compound 243, (R)-6-(4-(benzo[b]thiophene-3-carbonyl)-3-methylpiperazin-1-yl)-8-cyclohexyl-3,4-dihydro-1H-pyrano[3,4-c]pyridine-5-carbonitrile] | 1000 to 10000
13 | Cc1cc(C(=O)N2CCN(c3nc(C4CC4)c4c(c3C#N)CC(C)(C)OC4)C[C@H]2C)c(C)o1 [Compound 244] | 1000 to 10000
14 | Cc1cncc(C(=O)N2CCN(c3nc(C4CC4)c4c(c3C#N)CC(C)(C)OC4)C[C@H]2C(C)C)c1 [Compound 245, (R)-8-cyclopropyl-6-(3-isopropyl-4-(5-methylnicotinoyl)piperazin-1-yl)-3,3-dimethyl-3,4-dihydro-1H-pyrano[3,4-c]pyridine-5-carbonitrile] | 1000 to 10000
15 | CC(C)c1nc(N2CCN(C(=O)c3cccs3)[C@H](C)C2)c(C#N)c2c1COC(C)(C)C2 [Compound 246, (R)-8-isopropyl-3,3-dimethyl-6-(3-methyl-4-(thiophene-2-carbonyl)piperazin-1-yl)-3,4-dihydro-1H-pyrano[3,4-c]pyridine-5-carbonitrile] | 1000 to 10000
16 | CC(C)c1nc(N2CCN(C(=O)c3csc4ccccc34)[C@H](C)C2)c(C#N)c2c1COC(C)(C)C2 [Compound 247, (R)-6-(4-(benzo[b]thiophene-3-carbonyl)-3-methylpiperazin-1-yl)-8-isopropyl-3,3-dimethyl-3,4-dihydro-1H-pyrano[3,4-c]pyridine-5-carbonitrile] | 1000 to 10000

Row | SMILES | IC50 [nM]
17 | CC(C)c1nc(N2CCN(C(=O)Cc3cccnc3)[C@H](C)C2)c(C#N)c2c1COC(C)(C)C2 [Compound 248, (R)-8-isopropyl-3,3-dimethyl-6-(3-methyl-4-(2-(pyridin-3-yl)acetyl)piperazin-1-yl)-3,4-dihydro-1H-pyrano[3,4-c]pyridine-5-carbonitrile] | 1000 to 10000
18 | CC(C)c1nc(N2CCN(C(=O)c3cccnc3)[C@H](C)C2)c(C#N)c2c1COC(C)(C)C2 [Compound 249, (R)-8-isopropyl-3,3-dimethyl-6-(3-methyl-4-nicotinoylpiperazin-1-yl)-3,4-dihydro-1H-pyrano[3,4-c]pyridine-5-carbonitrile] | 1000 to 10000
19 | CC(C)c1nc(N2CCN(C(=O)Cc3cccnc3)[C@H](C(C)C)C2)c(C#N)c2c1COC(C)(C)C2 [Compound 250, (R)-8-isopropyl-6-(3-isopropyl-4-(2-(pyridin-3-yl)acetyl)piperazin-1-yl)-3,3-dimethyl-3,4-dihydro-1H-pyrano[3,4-c]pyridine-5-carbonitrile] | 500 to 1000
20 | CC(C)c1nc(N2CCN(C(=O)c3ccsc3)[C@H](C)C2)c(C#N)c2c1COC(C)(C)C2 [Compound 251, (R)-8-isopropyl-3,3-dimethyl-6-(3-methyl-4-(thiophene-3-carbonyl)piperazin-1-yl)-3,4-dihydro-1H-pyrano[3,4-c]pyridine-5-carbonitrile] | 1000 to 10000
21 | CC(C)c1nc(N2CCN(C(=O)c3cscn3)[C@H](C)C2)c(C#N)c2c1COC(C)(C)C2 [Compound 252, (R)-8-isopropyl-3,3-dimethyl-6-(3-methyl-4-(thiazole-4-carbonyl)piperazin-1-yl)-3,4-dihydro-1H-pyrano[3,4-c]pyridine-5-carbonitrile] | 1000 to 10000
22 | CC(C)c1nc(N2CCN(C(=O)C3CCOC3)[C@H](C)C2)c(C#N)c2c1COC(C)(C)C2 (stereo partly drawn) [Compound 253, 8-isopropyl-3,3-dimethyl-6-((3R)-3-methyl-4-(tetrahydrofuran-3-carbonyl)piperazin-1-yl)-3,4-dihydro-1H-pyrano[3,4-c]pyridine-5-carbonitrile] | 1000 to 10000
23 | COc1cccc(CC(=O)N2CCN(c3nc(C4CC4)c4c(c3C#N)CC(C)(C)OC4)C[C@H]2C(C)C)c1 [Compound 254] | 500 to 1000
24 | CC(C)c1nc(N2CCN(C(=O)c3ccoc3)[C@H](c3ccccc3)C2)c(C#N)c2c1COC(C)(C)C2 [Compound 256, (R)-6-(4-(furan-3-carbonyl)-3-phenylpiperazin-1-yl)-8-isopropyl-3,3-dimethyl-3,4-dihydro-1H-pyrano[3,4-c]pyridine-5-carbonitrile] | 1000 to 10000
25 | CC(C)c1nc(N2CCN(C(=O)c3ccoc3)[C@@H](c3ccccc3)C2)c(C#N)c2c1COC(C)(C)C2 [Compound 257, (S)-6-(4-(furan-3-carbonyl)-3-phenylpiperazin-1-yl)-8-isopropyl-3,3-dimethyl-3,4-dihydro-1H-pyrano[3,4-c]pyridine-5-carbonitrile] | 1000 to 10000
26 | CCOC(=O)C1CN(c2nc(C3CCCCC3)c3c(c2C#N)CCOC3)CCN1C(=O)c1ccoc1 (stereo not shown) [Compound 258, ethyl 4-(5-cyano-8-cyclohexyl-3,4-dihydro-1H-pyrano[3,4-c]pyridin-6-yl)-1-(furan-3-carbonyl) piperazine-2-carboxylate] | 1000 to 10000
27 | CCOC(=O)C1CN(c2nc(C3CC3)c3c(c2C#N)CC(C)(C)OC3)CCN1C(=O)c1ccoc1 (stereo not shown) [Compound 259, ethyl 4-(5-cyano-8-cyclopropyl-3,3-dimethyl-3,4-dihydro-1H-pyrano[3,4-c]pyridin-6-yl)-1-(furan-3-carbonyl)piperazine-2-carboxylate] | 1000 to 10000
28 | C[C@@H]1CN(c2nc(C3CCCCC3)c3c(c2C#N)CCOC3)CCN1C(=O)Cc1cccnc1 [Compound 260, (R)-8-cyclohexyl-6-(3-methyl-4-(2-(pyridin-3-yl)acetyl)piperazin-1-yl)-3,4-dihydro-1H-pyrano[3,4-c]pyridine-5-carbonitrile] | 1000 to 10000
29 | C[C@@H]1CN(c2nc(C3CCCCC3)c3c(c2C#N)CCOC3)CCN1C(=O)c1cnn2cccnc12 [Compound 261, (R)-8-cyclohexyl-6-(3-methyl-4-(pyrazolo[1,5-a]pyrimidine-3-carbonyl)piperazin-1-yl)-3,4-dihydro-1H-pyrano[3,4-c]pyridine-5-carbonitrile] | 1000 to 10000
30 | C[C@@H]1CN(c2nc(C3CCCCC3)c3c(c2C#N)CCOC3)CCN1C(=O)c1nccn1C [Compound 262, (R)-8-cyclohexyl-6-(3-methyl-4-(1-methyl-1H-imidazole-2-carbonyl)piperazin-1-yl)-3,4-dihydro-1H-pyrano[3,4-c]pyridine-5-carbonitrile] | 1000 to 10000
31 | C[C@@H]1CN(c2nc(C3CCCCC3)c3c(c2C#N)CCOC3)CCN1C(=O)C1CCOC1 (stereo partly drawn) [Compound 263, 8-cyclohexyl-6-((3R)-3-methyl-4-(tetrahydrofuran-3-carbonyl)piperazin-1-yl)-3,4-dihydro-1H-pyrano[3,4-c]pyridine-5-carbonitrile] | 1000 to 10000
